Five compounds from ChEMBL document CHEMBL3774347, “Docking and Linking of Fragments To Discover Jumonji Histone Demethylase Inhibitors” (J Med Chem, 2016) can be followed below.

Assay [1] has as its target T1, Lysine-specific demethylase 4C (Homo sapiens, UniProt Q9H3R0).
T1 sequence (Q9H3R0 whole entry): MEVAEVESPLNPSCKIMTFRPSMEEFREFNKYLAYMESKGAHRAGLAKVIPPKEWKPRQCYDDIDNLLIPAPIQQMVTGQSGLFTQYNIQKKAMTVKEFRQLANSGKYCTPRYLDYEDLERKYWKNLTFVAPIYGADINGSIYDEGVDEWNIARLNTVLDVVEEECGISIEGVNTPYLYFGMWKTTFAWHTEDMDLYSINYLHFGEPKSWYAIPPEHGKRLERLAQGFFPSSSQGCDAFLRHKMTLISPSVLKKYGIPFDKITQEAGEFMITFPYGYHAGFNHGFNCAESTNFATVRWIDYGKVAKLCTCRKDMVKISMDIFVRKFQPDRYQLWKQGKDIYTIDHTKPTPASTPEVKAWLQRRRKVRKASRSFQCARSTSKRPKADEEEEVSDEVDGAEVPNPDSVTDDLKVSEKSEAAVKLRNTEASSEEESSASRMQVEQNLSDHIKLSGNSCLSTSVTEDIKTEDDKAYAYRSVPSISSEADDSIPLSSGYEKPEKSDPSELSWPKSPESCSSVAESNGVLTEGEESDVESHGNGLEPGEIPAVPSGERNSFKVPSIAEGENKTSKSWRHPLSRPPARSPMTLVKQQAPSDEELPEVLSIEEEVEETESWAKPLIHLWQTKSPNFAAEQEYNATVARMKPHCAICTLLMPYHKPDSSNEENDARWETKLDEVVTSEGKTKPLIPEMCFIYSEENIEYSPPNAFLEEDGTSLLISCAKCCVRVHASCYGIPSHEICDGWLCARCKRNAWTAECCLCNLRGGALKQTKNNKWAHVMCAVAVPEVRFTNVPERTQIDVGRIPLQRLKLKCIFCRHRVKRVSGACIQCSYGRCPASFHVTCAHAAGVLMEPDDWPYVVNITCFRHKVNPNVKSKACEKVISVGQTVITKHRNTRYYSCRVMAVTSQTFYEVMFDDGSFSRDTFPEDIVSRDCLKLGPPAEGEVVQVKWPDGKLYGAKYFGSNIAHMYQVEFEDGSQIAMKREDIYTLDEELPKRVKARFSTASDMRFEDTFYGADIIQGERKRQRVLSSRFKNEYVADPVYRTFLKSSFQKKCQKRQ
The assay can be described thus: Inhibition of N-terminal His6-tagged KDM4C (1 to 352 residues) (unknown origin) expressed in Escherichia coli Rosetta 2(DE3)pLysS using ARTKQTARK(Me3)STGGKA peptide/100 uM alpha-ketoglutarate as substrate/cofactor incubated for 45 mins by MALDI assay.

Assay [2] has as its target T2, Lysine-specific demethylase 3A (Homo sapiens, UniProt Q9Y4C1).
T2 sequence (Q9Y4C1 whole entry): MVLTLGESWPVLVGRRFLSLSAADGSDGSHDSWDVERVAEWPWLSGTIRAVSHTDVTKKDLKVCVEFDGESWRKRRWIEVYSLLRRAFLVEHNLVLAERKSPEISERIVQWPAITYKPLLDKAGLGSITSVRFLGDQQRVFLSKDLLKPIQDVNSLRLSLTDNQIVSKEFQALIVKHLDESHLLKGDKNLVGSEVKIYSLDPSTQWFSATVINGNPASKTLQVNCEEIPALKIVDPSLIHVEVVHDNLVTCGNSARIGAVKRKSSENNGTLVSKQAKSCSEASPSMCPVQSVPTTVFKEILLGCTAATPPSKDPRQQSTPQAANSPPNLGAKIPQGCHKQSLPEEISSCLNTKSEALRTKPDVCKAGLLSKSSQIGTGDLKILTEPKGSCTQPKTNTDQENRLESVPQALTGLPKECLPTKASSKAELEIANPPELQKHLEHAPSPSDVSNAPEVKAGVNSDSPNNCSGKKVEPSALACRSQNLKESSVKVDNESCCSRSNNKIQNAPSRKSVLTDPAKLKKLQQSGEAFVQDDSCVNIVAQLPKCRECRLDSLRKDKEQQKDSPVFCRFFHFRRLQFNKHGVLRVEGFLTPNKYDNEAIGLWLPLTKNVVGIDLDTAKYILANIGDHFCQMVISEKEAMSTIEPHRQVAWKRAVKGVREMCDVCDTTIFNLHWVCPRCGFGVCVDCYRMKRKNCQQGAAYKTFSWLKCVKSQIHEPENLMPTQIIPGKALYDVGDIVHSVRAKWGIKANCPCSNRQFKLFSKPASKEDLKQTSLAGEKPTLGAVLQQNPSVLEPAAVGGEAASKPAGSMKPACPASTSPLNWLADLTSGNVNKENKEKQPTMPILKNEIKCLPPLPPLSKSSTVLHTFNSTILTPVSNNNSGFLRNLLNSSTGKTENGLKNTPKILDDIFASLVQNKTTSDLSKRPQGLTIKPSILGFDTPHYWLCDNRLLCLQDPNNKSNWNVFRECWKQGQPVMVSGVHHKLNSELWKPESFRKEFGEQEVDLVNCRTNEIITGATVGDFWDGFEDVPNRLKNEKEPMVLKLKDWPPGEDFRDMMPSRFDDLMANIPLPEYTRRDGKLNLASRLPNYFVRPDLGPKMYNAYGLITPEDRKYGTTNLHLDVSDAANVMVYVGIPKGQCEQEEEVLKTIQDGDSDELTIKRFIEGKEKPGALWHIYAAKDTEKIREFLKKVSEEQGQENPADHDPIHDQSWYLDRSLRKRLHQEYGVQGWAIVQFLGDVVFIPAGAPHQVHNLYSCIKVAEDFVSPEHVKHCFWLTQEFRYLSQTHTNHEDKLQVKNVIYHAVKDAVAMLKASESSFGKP
Kind of assay: Inhibition of KDM3A (unknown origin) expressed in Escherichia coli using H3 (1 to 21 residues) K9Me2-GGK-Biotin KDM3A Cognate Ligand/10 uM alpha-ketoglutarate as substrate/cofactor preincubated for 5 mins followed by substrate addition measured after 20 mins by alphascreen assay. A general note: In Alpha technology, singlet oxygen from a donor bead excites a nearby acceptor bead.

In assay [3] the target is T1, Lysine-specific demethylase 4C. The assay can be described thus: Inhibition of N-terminal His6-tagged KDM4C (1 to 352 residues) (unknown origin) expressed in Escherichia coli Rosetta 2(DE3)pLysS using biotinylated histone H3 (1 to 21 residues) lysine 9 trimethylated peptide/50 uM alpha-ketoglutarate as substrate/cofactor measured after 45 mins by TR-FRET assay. The note with it: read-out: IC50. (In general: TR-FRET usually uses a lanthanide donor and a delayed reading to cut background.)

Assay [4] addresses Lysine-specific demethylase 5A (Homo sapiens, UniProt P29375). The assay can be described thus: Inhibition of KDM5A (1 to 797 residues) (unknown origin) expressed in insect sf21 cells using ARTK(Me3)QTARKSTGGKAPRK peptide/ 100 uM alpha-ketoglutarate as substrate/cofactor incubated for 45 mins by MALDI assay.
For assay [5], the target named is Lysine-specific demethylase 6B (Homo sapiens, UniProt O15054). The assay can be described thus: Inhibition of KDM6B (unknown origin) expressed in Escherichia coli using H3 (21 to 44 residues) K27Me3-GGK-Biotin JMJD3 Cognate Ligand/10 uM alpha-ketoglutarate as substrate/cofactor preincubated for 5 mins followed by substrate addition measured after 5 mins by alphascreen assay.

SMILES strings stand for the structures.

One may read the IC50 as the concentration needed to halve the response being measured.

Chain of Lysine-specific demethylase 6B (O15054 whole entry, the tested form may be a part): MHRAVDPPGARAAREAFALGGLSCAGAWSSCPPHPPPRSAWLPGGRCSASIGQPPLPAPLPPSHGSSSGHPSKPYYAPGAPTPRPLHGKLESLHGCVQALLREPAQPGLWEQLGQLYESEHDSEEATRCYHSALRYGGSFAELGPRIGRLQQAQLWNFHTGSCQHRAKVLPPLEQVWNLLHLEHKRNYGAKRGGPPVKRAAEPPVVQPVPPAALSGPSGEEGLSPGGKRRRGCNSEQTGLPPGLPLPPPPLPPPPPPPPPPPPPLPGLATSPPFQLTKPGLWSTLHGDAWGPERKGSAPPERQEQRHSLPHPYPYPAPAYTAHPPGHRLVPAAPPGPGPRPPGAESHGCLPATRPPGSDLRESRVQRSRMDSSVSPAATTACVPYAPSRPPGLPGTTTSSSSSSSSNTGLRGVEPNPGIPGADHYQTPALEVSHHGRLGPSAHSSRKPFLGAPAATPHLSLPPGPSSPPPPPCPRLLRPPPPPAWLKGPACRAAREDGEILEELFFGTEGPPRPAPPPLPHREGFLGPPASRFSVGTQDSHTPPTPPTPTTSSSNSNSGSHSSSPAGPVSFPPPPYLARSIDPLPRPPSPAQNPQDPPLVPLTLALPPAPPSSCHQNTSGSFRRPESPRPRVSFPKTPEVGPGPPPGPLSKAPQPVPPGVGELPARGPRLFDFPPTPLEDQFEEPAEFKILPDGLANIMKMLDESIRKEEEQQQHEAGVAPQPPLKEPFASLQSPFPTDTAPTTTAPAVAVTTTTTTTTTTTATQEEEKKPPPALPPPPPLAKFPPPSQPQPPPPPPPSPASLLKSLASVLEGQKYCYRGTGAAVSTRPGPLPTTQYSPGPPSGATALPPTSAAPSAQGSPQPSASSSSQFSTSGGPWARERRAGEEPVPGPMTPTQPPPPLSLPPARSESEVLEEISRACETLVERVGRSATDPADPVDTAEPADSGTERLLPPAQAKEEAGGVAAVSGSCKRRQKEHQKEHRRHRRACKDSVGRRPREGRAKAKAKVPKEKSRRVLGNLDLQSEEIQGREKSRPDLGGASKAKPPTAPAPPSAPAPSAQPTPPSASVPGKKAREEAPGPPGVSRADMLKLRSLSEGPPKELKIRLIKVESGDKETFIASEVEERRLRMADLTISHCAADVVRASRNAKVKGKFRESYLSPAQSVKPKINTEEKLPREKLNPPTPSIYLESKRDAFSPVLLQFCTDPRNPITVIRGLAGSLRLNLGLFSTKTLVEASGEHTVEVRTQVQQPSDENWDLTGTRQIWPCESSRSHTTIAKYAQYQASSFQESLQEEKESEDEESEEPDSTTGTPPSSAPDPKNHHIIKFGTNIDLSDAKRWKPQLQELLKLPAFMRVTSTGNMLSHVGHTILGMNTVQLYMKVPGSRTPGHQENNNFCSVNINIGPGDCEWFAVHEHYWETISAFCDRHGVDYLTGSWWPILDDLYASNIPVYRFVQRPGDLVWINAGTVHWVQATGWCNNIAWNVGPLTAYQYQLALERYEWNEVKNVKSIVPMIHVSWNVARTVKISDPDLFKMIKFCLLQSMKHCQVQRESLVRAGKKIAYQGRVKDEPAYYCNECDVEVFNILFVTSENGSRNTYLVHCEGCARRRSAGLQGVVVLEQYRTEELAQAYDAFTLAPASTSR
Chain of Lysine-specific demethylase 5A (P29375 whole entry, the tested form may be a part): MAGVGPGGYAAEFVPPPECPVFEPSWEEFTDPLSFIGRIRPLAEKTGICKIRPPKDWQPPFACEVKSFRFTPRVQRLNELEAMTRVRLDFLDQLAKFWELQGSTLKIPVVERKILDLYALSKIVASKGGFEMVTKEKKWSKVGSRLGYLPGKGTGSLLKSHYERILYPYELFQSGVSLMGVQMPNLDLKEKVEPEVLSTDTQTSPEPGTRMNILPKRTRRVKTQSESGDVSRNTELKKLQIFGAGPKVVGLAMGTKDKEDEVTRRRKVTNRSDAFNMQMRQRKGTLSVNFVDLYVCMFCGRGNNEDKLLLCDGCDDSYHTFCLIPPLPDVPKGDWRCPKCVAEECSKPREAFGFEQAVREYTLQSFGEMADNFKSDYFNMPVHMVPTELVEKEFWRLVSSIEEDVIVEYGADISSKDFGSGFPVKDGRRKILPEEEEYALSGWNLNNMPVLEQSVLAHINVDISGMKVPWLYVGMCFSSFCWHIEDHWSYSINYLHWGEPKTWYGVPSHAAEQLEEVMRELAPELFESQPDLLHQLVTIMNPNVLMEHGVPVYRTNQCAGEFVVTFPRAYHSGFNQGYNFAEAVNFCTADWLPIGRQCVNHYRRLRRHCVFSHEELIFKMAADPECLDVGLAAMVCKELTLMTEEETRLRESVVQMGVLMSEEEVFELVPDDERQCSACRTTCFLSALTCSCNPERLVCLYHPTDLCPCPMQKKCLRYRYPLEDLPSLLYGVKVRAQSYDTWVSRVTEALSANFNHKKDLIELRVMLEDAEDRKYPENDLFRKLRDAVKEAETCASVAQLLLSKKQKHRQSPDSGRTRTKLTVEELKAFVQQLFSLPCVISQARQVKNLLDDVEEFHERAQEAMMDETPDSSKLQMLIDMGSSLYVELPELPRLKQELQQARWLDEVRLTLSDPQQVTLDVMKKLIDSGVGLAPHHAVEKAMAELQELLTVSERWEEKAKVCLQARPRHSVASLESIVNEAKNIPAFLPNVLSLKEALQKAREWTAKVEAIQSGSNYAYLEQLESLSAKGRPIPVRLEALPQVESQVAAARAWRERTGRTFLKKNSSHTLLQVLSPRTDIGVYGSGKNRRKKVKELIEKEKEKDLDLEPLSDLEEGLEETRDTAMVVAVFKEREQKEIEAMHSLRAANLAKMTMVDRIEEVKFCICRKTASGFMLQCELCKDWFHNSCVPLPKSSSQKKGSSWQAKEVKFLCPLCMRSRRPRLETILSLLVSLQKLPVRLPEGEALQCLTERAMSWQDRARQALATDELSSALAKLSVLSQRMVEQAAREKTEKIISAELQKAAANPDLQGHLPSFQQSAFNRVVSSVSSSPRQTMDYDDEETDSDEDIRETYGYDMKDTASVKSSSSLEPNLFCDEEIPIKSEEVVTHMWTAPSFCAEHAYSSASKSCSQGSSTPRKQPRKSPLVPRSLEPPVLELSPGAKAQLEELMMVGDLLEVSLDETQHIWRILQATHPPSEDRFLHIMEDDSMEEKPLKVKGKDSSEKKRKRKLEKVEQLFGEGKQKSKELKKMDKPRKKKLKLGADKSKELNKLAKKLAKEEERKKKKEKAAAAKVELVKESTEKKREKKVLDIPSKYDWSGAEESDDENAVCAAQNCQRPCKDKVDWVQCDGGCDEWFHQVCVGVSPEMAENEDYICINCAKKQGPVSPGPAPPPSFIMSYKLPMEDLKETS

Regarding `Cc1cc(C(=O)Nc2ccc(O)c(-c3cc(C(=O)O)ccn3)c2)no1`, the IC50 in assay [1] is 16 µM; in assay [2] it was 5.7 µM; in assay [3], 5 µM; in assay [4], 23 µM; in assay [5] it was 31 µM.

For `CC(=O)Nc1ccc(O)c(-c2cc(C(=O)O)ccn2)c1`, the IC50 is 63 µM in assay [1]; 33 µM in assay [2]; 40 µM in assay [3]; 240 µM in assay [4]; more than 100 µM in assay [5].

As to `COCC(=O)Nc1ccc(O)c(-c2cc(C(=O)O)ccn2)c1`, the IC50 in assay [1] was 47 µM; in assay [2], 11 µM; in assay [3] it was 7.4 µM; in assay [4], 180 µM; in assay [5] it was more than 100 µM.

Consider `COc1cccc(CC(=O)Nc2ccc(O)c(-c3cc(C(=O)O)ccn3)c2)c1`, for which the IC50 in assay [1] came to 7.3 µM; in assay [2], 9 µM; in assay [3] it was 1.5 µM; in assay [4], 52 µM; in assay [5] it was 16 µM.

For the compound `O=C(O)c1ccnc(-c2cc(NC(=O)c3ccc(O)cc3)ccc2O)c1`, the concentration for half-maximal inhibition (IC50) in assay [1] worked out at 5.9 µM; in assay [2], 2.3 µM; in assay [3] it was 2.6 µM; in assay [4], 45 µM; in assay [5] it was 27 µM.
